Data taken from patent US20240376099A1, “COMPOUNDS AND COMPOSITIONS AS INHIBITORS OF ENDOSOMAL TOLL-LIKE RECEPTORS” (Novartis AG, priority 2016, published 2024).

Biological target: T1, TLR9 (Homo sapiens, UniProt Q9NR96)
T1 construct: Fresh blood was collected from normal human donors; endogenous in cells; host or cells: human PBMCs from fresh donor blood
T1 sequence (Q9NR96 26-1032): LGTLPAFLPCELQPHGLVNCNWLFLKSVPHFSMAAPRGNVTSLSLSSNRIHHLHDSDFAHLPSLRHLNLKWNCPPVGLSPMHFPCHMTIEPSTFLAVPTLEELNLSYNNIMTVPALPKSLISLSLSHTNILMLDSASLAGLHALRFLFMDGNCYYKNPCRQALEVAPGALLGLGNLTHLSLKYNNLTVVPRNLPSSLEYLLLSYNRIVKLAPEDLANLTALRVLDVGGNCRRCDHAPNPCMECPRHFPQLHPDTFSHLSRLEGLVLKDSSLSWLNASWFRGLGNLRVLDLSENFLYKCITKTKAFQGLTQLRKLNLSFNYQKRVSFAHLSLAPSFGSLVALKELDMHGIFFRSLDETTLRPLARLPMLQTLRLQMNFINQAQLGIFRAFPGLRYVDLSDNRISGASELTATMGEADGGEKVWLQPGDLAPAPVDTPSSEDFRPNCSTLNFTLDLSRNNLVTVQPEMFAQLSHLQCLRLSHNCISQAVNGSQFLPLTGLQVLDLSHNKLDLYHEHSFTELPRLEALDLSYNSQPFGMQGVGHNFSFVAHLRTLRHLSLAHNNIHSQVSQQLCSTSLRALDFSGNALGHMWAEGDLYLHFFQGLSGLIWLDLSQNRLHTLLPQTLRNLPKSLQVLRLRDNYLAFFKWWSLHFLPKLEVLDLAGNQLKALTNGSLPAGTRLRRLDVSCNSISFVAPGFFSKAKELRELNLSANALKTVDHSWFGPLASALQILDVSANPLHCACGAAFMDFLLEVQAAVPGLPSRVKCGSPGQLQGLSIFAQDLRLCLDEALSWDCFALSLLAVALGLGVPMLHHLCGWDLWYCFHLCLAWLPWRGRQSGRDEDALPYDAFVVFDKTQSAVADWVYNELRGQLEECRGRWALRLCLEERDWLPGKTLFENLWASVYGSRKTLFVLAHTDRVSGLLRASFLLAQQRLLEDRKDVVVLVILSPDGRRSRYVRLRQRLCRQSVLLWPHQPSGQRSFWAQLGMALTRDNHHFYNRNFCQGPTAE
Test: huPBMC TLR9 Antagonist IFNα Assay
Assay type: cell-based
Settings: human PBMCs stimulated with ODN2216 0.3 μM, 14-16 hrs; IFNα2b AlphaLISA read-out
Procedure: Compounds were generally serially diluted (1/3) in DMSO and plated on sterile 384 well tissue culture plates and stored until ready for use. Each ten-point dilution was typically plated in triplicate in parallel rows.
Fresh blood was collected from normal human donors underwritten informed consent in heparinized syringes on the morning of the assay. The blood was diluted in RPMI-1640 medium and the white blood cells were separated from red blood cells by centrifugation (800 g 15′ 0 acceleration, 0 brake) on a Ficoll cushion. Peripheral blood mononuclear cells (PBMCs) were separated from platelets by a series of low-speed centrifugations (1000RPM 10′) in PBS+5% HI—FBS and 1 mM EDTA. Purified PBMCs were re-suspended in assay medium (RPMI-1640 w Glutamax (Invitrogen) supplemented with 5% HI—FBS, 10 mM HEPES, 50 uM β-mercaptoethanol, and 100 mG/L penicillin/streptomycin cocktail). Viable PBMCs were counted on a hemacytometer and kept on ice until ready for plating.
A 4× concentration (4 ug/ml or 40 ug/ml for TLR8 or TLR7 assays, respectively) of the TLR7/8 agonist ssRNA40 (IDT) was complexed with 10% DOTAP (Roche) in assay medium for 30 min prior to addition to the PBMC suspension (5 million cells/ml). After addition, the final concentration of ssRNA40 in the TLR7/8 stimulated PBMC suspension was 1 μg/ml for TLR8 assay, and 10 μg/mL for the TLR7 assay. The final DOTAP concentration was 2.5%. Diluted PBMCs (5 million cells/ml) were treated with 4×TLR9 agonist ODN2216 (Invivogen). Final concentration of ODN2216 in TLR9 stimulated PBMC suspension was 0.3 μM.
Agonist stimulated PBMCs were plated on the compound treated 384 well plates at 150,000 cells/well. Un-stimulated PBMCs were plated as controls on each plate. Plating volume was 40 μL per well. DMSO concentration in each well was 0.25%.
A separate plate, without compounds, with titrations of ssRNA40 and ODN2216 was included in every assay to measure agonist response of each donor's PBMC prep. Assay plates were placed in a tissue culture incubator (37° C., 5% CO2) for 14-16 hrs. After this incubation, the plates were centrifuged and stored at −20° C. until they were assayed.
IL-6 TR-FRET Assay for TLR8 activity: • 1) Cisbio Human IL-6 kit, 20,000 tests (62TNFPEC), and GNF High-Base TC 384 well plates (cat #789163G) were used; • 2) the Anti-TIL-6 Cryptate conjugate and the Anti-IL-6 XL665 conjugate were diluted 1:20 in Reconstitution Buffer; • 3) a 1:1 mixture of 3 μl/well Anti-IL-6 Cryptate conjugate and 3 μl/well Anti-IL-6 XL665 conjugate was prepared; • 4) 6 μl/well HTRF dilution mastermix was added to 6 μl of transferred supernatant samples in proxiplates; • 5) The plates were incubated for 3 hrs at rt in the dark; and • 6) the levels of IL-6 production was measured using an Envision plate reader (665 nm (emmission)/590 nm (excitation)) with HTRF settings and ratiometric read-out: (XL665 emission/Eu Cryptate emission)×10,000. IFNα2b AlphaLISA Assay for TLR7 or TLR9 activity After thawing the assay plates, 6 μL of supernatant samples were transferred to a low-volume AlphaPlate 384SW (Perkin-Elmer). The concentration of IFNα in supernatants was measured using the IFNα2b AlphaLISA Assay (Perkin-Elmer: AL297F). 3 μL of IFNα acceptor beads/biotinylated antibody solution was added first, using laboratory automation. After an hour incubation, […] of streptavidin […] bead solution was added. The plates containing this mixture were incubated in the dark for an hour and read on an appropriate plate reader at reading parameters set by the manufacturer. (Envision, EnSpire: Perkin-Elmer).

SMILES	IC50 [µM]
Cc1cc(N2CCc3c(c(C)nn3CC34CCC(NC5COC5)(CC3)CC4)C2)c2cnn(C)c2n1 [Compound No. 6, N-(4-((5-(1,6-dimethyl-1H-pyrazolo[3,4-b]pyridin-4-yl)-3-methyl-4,5,6,7-tetrahydro-1H-pyrazolo[4,3-c]pyridin-1-yl)methyl)bicyclo[2.2.2]octan-1-yl)oxetan-3-amine]	1.39
Cc1cc(N2CCc3c(c(C)nn3CC34CCC(NC(=O)[C@@H]5COCCN5)(CC3)CC4)C2)c2cnn(C)c2n1 [Compound No. 8, (S)—N-(4-((5-(1,6-dimethyl-1H-pyrazolo[3,4-b]pyridin-4-yl)-3-methyl-4,5,6,7-tetrahydro-1H-pyrazolo[4,3-c]pyridin-1-yl)methyl)bicyclo[2.2.2]octan-1-yl)morpholine-3-carboxamide]	4.28
Cc1cc(N2CCc3c(c(C)nn3CC34CCC(NC(=O)[C@H]5COCCN5)(CC3)CC4)C2)c2cnn(C)c2n1 [Compound No. 9, (R)—N-(4-((5-(1,6-dimethyl-1H-pyrazolo[3,4-b]pyridin-4-yl)-3-methyl-4,5,6,7-tetrahydro-1H-pyrazolo[4,3-c]pyridin-1-yl)methyl)bicyclo[2.2.2]octan-1-yl)morpholine-3-carboxamide]	5.1
Cc1nc(N2CCc3c(c(C)nn3CC34CCC(N)(CC3)CC4)C2)c2c(n1)c(C)nn2C [Compound No. 26, 4-((3-methyl-5-(1,3,5-trimethyl-1H-pyrazolo[4,3-d]pyrimidin-7-yl)-4,5,6,7-tetrahydro-1H-pyrazolo[4,3-c]pyridin-1-yl)methyl)bicyclo[2.2.2]octan-1-amine]	> 1
Cc1cc(N2CCc3c(c(C)nn3CC34CCC(N(C)C)(CC3)CC4)C2)c2cnn(C)c2n1 [Compound No. 43, 4-((5-(1,6-dimethyl-1H-pyrazolo[3,4-b]pyridin-4-yl)-3-methyl-4,5,6,7-tetrahydro-1H-pyrazolo[4,3-c]pyridin-1-yl)methyl)-N,N-dimethylbicyclo[2.2.2]octan-1-amine]	0.511
Cc1cc(N2CCc3c(c(C)nn3CC34CCC(N5CCN(C)C(=O)C5)(CC3)CC4)C2)c2cnn(C)c2n1 [Compound No. 104, 4-(4-((5-(1,6-dimethyl-1H-pyrazolo[3,4-b]pyridin-4-yl)-3-methyl-4,5,6,7-tetrahydro-1H-pyrazolo[4,3-c]pyridin-1-yl)methyl)bicyclo[2.2.2]octan-1-yl)-1-methylpiperazin-2-one]	> 10
Cc1cc(N2CCc3c(c(C)nn3CC34CCC(N5CCN(C)CC5=O)(CC3)CC4)C2)c2cnn(C)c2n1 [Compound No. 108, 1-(4-((5-(1,6-dimethyl-1H-pyrazolo[3,4-b]pyridin-4-yl)-3-methyl-4,5,6,7-tetrahydro-1H-pyrazolo[4,3-c]pyridin-1-yl)methyl)bicyclo[2.2.2]octan-1-yl)-4-methylpiperazin-2-one]	8.64
Cc1cc(N2CCc3c(c(C)nn3CC34CCC(n5ccnc5)(CC3)CC4)C2)c2cnn(C)c2n1 [Compound No. 119, 1-((4-(1H-imidazol-1-yl)bicyclo[2.2.2]octan-1-yl)methyl)-5-(1,6-dimethyl-1H-pyrazolo[3,4-b]pyridin-4-yl)-3-methyl-4,5,6,7-tetrahydro-1H-pyrazolo[4,3-c]pyridine]	0.608
Cc1cc(N2CCc3c(c(C)nn3CC34CCC(NC(=O)CN5CC(F)C5)(CC3)CC4)C2)c2cnn(C)c2n1 [Compound No. 133, N-(4-((5-(1,6-dimethyl-1H-pyrazolo[3,4-b]pyridin-4-yl)-3-methyl-4,5,6,7-tetrahydro-1H-pyrazolo[4,3-c]pyridin-1-yl)methyl)bicyclo[2.2.2]octan-1-yl)-2-(3-fluoroazetidin-1-yl)acetamide]	1.14
Cc1cc(N2CCc3c(c(C)nn3CC34CCC(NC(=O)OC(C)(C)C)(CC3)CC4)C2)c2ccncc2n1 [Compound No. 147, tert-butyl (4-((3-methyl-5-(2-methyl-1,7-naphthyridin-4-yl)-4,5,6,7-tetrahydro-1H-pyrazolo[4,3-c]pyridin-1-yl)methyl)bicyclo[2.2.2]octan-1-yl)carbamate]	6.24

Second part, the compound after the results:

IC50 [µM]	SMILES
1.93	Cc1cc(N2CCc3c(c(C)nn3CC34CCC(N)(CC3)CC4)C2)c2ccncc2n1 [Compound No. 3, 4-((3-methyl-5-(2-methyl-1,7-naphthyridin-4-yl)-4,5,6,7-tetrahydro-1H-pyrazolo[4,3-c]pyridin-1-yl)methyl)bicyclo[2.2.2]octan-1-amine]
> 10	Cc1nc(N2CCc3c(c(C)nn3CC34CCC(N5CC6(COC6)C5)(CC3)CC4)C2)c2c(n1)c(C)nn2C [Compound No. 10, 6-(4-((3-methyl-5-(1,3,5-trimethyl-1H-pyrazolo[4,3-d]pyrimidin-7-yl)-4,5,6,7-tetrahydro-1H-pyrazolo[4,3-c]pyridin-1-yl)methyl)bicyclo[2.2.2]octan-1-yl)-2-oxa-6-azaspiro[3.3]heptane]
> 10	Cc1cc(N2CCc3c(c(C)nn3CC34CCC(NC(=O)CO)(CC3)CC4)C2)c2cnn(C)c2n1 [Compound No. 135, N-(4-((5-(1,6-dimethyl-1H-pyrazolo[3,4-b]pyridin-4-yl)-3-methyl-4,5,6,7-tetrahydro-1H-pyrazolo[4,3-c]pyridin-1-yl)methyl)bicyclo[2.2.2]octan-1-yl)-2-hydroxyacetamide]
1.17	Cc1cc(N2CCc3c(c(C)nn3CC34CCC(NC(=O)CN5CC(O)C5)(CC3)CC4)C2)c2cnn(C)c2n1 [Compound No. 136, N-(4-((5-(1,6-dimethyl-1H-pyrazolo[3,4-b]pyridin-4-yl)-3-methyl-4,5,6,7-tetrahydro-1H-pyrazolo[4,3-c]pyridin-1-yl)methyl)bicyclo[2.2.2]octan-1-yl)-2-(3-hydroxyazetidin-1-yl)acetamide]
1.8	[2H]C([2H])([2H])n1ncc2c(N3CCc4c(c(C)nn4CC45CCC(N)(CC4)CC5)C3)cc(C)nc21 [Compound No. 140, 4-((3-methyl-5-(6-methyl-1-(methyl-d3)-1H-pyrazolo[3,4-b]pyridin-4-yl)-4,5,6,7-tetrahydro-1H-pyrazolo[4,3-c]pyridin-1-yl)methyl)bicyclo[2.2.2]octan-1-amine]
